{"source": "paper PMC4893628", "about": "“Chalcone-based Selective Inhibitors of a C4 Plant Key Enzyme as Novel Potential Herbicides” (Scientific Reports, 2016)", "key": {"[1]": {"test_system": "human breast cancer cells", "parameters": "method as in PMID 11720850", "settings": "higher; cited from earlier work"}, "A. retroflexus [2]": {"test_system": "A. retroflexus", "experiment": "Chlorophyll fluorescence measurements, A. retroflexus leaf discs", "assay_type": "in vivo, Amaranthus retroflexus", "settings": "2 mM", "description": "from a fixed distance at 90° view angle using the camera Canon EOS 70D equipped with a Canon EF 14 mm/2.8 L II USM lens. Leaf area of single leaves was measured using the ImageJ software31, by drawing the leaf contours using a drawing tablet (Cintiq 22HD, Wacom Europe GmbH, Krefeld, Germany). Conversion of pixel to cm was achieved by using a target of known size inside the image. Six days after the treatment, half of the plants were harvested. Leaf area was assessed using a leaf area meter (LI3100C Area Meter, LI-Cor, Lincoln, Nebraska, USA) and samples were oven-dried at 65°C for seven days to obtain dry weight . Thirteen days after the treatment, this procedure was repeated with the second half of plants.\nChlorophyll fluorescence measurements\nFor assessment of photosynthetic parameters, A. retroflexus plants were grown under the abovementioned conditions until the two-leaves growth stage. 6 mm leaf discs were cut out of the second leaf and immediately placed into 96-well-plates filled with 300 µL 0.125 % Hoagland’s solution with 1 mM MES-KOH (MES-monohydrate, Merck, Darmstadt, Germany) buffered to a pH of 6.5. The treatment solution contained 1.6 % (v/v) DMSO, 0.1 % (v/v) Tween® 20 and 2',3',4',3,4-Pentahydroxychalcone at a concentration of 2 mM. The control treatment contained 1.6 % (v/v) DMSO, 0.1 % (v/v) Tween® 20. Each leaf disc was treated with 1.5 µL solution placed on top of the leaf discs. Plates were sealed with Parafilm and placed into a climate cabinet with 12h/12h day/night-length and a temperature of 22°C at a light intensity of 130 µmol m-2 s-1. 96 hours after treatment, chlorophyll fluorescence measurements were performed on leaf discs using an Imaging PAM M-Series fluorescence camera (Heinz Walz GmbH, Effeltrich, Germany). Leaf discs were dark adapted for 30 minutes, minimum and maximum chlorophyll fluorescence were obtained and leaf discs were illuminated for 30 minutes"}, "B. napus": {"test_system": "B. napus", "experiment": "Leaf gas exchange measurements, B. napus", "assay_type": "in vivo, Brassica napus", "description": "(§1) CO2-response curves were obtained on A. retroflexus and B. napus using a LI-6400XT portable photosynthesis system equipped with a fluorescence head and a leaf chamber size of 2 cm^2 (LI-COR, Lincoln, NE, USA) at a photon flux density of 1500 μmol m^−2 s^−1 and at 25 °C leaf temperature. Plants were grown at the research greenhouse of the IBG-2 Institute of Plant Sciences at Forschungszentrum Jülich, Germany (50°55′20″N 06°21′30″E), at a day/night length of 16 h/8 h, at an average day/night temperature of 23 °C/17 °C, relative humidity of 55%, and light intensity of 170 PAR. Plants were treated as described above at the three-leaf stage. Measurements were performed on the third leaf before treatment and one day after treatment. Each treatment was repeated four times. Information on statistical analysis is given in the Supplementary Information."}, "A. retroflexus [3]": {"test_system": "A. retroflexus", "experiment": "Leaf gas exchange measurements, A. retroflexus", "assay_type": "in vivo, Amaranthus retroflexus", "description": "as §1"}, "[4]": {"settings": "estimate valid for both measurement days (before and one day after treatment)"}}}
{"compound": "O=C(/C=C/c1ccccc1)c1ccc(O)c(O)c1O", "note": "[Compound 10, 2′,3′,4′-Trihydroxychalcone]", "values": [{"measurement": "antiproliferative IC50 relative to IC50 for inhibition of C4 PEPC", "setting": "[1]", "result": "~ 5 fold"}]}
{"compound": "O=C(/C=C/c1ccc(O)c(O)c1)c1ccc(O)c(O)c1O", "note": "[Compound 12, 2′,3′,4′,3,4-Pentahydroxy-chalcone]", "values": [{"measurement": "effective quantum yield of photosystem II", "setting": "A. retroflexus [2]", "result": "increased"}, {"measurement": "maximum electron transfer rate", "setting": "A. retroflexus [2]", "result": "increased"}, {"measurement": "non-photochemical quenching", "setting": "A. retroflexus [2]", "result": "reduced"}, {"measurement": "photosynthetic parameters", "setting": "B. napus; after treatment", "result": "no changes"}, {"measurement": "maximal electron transport rate (Jmax)", "setting": "B. napus; [4]", "result": "144.2 (3.77)"}, {"measurement": "maximal rubisco carboxylation rate (Vcmax)", "setting": "B. napus; [4]", "result": "81.5 (3.33)"}, {"measurement": "mitochondrial respiration (Rd)", "setting": "B. napus; [4]", "result": "0.9 (0.66)"}, {"measurement": "Maximal PEP carboxylation rate (Vpmax)", "setting": "A. retroflexus [3]; Before treatment", "result": 36.5, "unit": "μmol m^−2 s^−1"}, {"measurement": "Maximal PEP carboxylation rate (Vpmax)", "setting": "A. retroflexus [3]; Before treatment, listed as Okanin", "result": "36.5 (3.96) μmol m^−2 s^−1"}, {"measurement": "Maximal PEP carboxylation rate (Vpmax)", "setting": "A. retroflexus [3]; One day after treatment", "result": 17.2, "unit": "μmol m^−2 s^−1"}, {"measurement": "Maximal PEP carboxylation rate (Vpmax)", "setting": "A. retroflexus [3]; One day after treatment, listed as Okanin", "result": "17.2 (2.43) μmol m^−2 s^−1"}, {"measurement": "decrease of Vpmax", "setting": "A. retroflexus [3]; one day after treatment", "result": "more than 50%"}]}
